From patent publication US20220306617A1, “SUBSTITUTED 1,3-PHENYL HETEROARYL DERIVATIVES AND THEIR USE IN THE TREATMENT OF DISEASE” (NOVARTIS AG, priority 2019, published 2022)
Where a name gives a salt, the structure may show the parent alone.

Biological target: T1, abc isoform of human TMEM16A channel expressed in CHO cells (Homo sapiens, UniProt Q5XXA6, DEL476-501)
T1 construct: expressed in transfected cells; host or cells: CHO cells, doxycycline-inducible expression under Blasticidin/Zeocin selection
T1 sequence (Q5XXA6 with tags, fused parts or gaps isoform Q5XXA6-5 DEL539-564): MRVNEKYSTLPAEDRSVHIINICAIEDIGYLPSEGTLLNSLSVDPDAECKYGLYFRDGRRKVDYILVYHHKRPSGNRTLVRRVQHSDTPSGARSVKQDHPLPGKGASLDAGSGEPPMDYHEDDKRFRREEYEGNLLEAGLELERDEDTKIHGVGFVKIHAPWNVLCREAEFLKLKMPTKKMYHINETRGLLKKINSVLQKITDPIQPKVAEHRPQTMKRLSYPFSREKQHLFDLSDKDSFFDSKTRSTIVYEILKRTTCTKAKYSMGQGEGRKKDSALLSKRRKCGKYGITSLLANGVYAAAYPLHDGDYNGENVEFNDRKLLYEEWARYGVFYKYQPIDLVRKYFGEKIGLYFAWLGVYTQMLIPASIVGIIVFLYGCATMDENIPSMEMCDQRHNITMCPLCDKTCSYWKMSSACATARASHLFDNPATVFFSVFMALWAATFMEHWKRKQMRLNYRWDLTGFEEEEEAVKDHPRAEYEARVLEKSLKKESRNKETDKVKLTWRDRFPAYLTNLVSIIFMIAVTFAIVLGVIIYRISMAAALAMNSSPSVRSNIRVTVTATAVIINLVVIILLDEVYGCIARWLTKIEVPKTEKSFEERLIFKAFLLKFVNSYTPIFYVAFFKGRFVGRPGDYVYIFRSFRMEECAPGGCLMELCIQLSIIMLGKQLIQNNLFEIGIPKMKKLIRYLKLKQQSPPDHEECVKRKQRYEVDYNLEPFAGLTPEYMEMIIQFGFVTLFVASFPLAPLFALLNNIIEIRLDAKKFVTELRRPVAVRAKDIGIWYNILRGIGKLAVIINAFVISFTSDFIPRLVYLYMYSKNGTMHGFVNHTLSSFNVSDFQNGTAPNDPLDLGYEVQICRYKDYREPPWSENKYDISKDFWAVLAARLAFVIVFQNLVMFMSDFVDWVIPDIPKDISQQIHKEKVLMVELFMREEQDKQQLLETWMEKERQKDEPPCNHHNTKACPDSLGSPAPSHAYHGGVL
Assay: Automated patch clamping (QPatch) assay to measure TMEM16A activity in whole-cell
Assay type: cell-based
Settings: for EC50: CHO cells expressing human TMEM16A (abc), whole-cell automated patch clamp, Hill fit, read-out: TMEM16A QPATCH assay EC50 V3 EC50; for Emax: CHO, maximum current at highest dose relative to reference potentiator at maximal concentration (upper limit) and vehicle (lower limit), read-out: TMEM16A QPATCH assay EC50 V3 Assay Window (% TMEM16A max activation)
Summary of the method: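 CHO cells with doxycycline-induced (1 μg/mL, 18-24 h) human TMEM16A abc isoform; QPatch whole-cell recording, hold −70 mV, step +70 mV 1500 ms, then −90 to +70 mV ramp. Compounds in 0.3% DMSO; EC50 by Hill fit; % max activation relative to vehicle baseline and reference potentiator maximum.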

| EC50 [nM] | Emax [%] | SMILES |
| --- | --- | --- |
| 790 | 68 | CCC(CC)NC(=O)c1cnc(-c2cccc(-c3cc(C(=O)NCC4(N5CCOCC5)CCCCC4)n[nH]3)c2)o1 [Example 3.67, 2-(3-(3-(((1-Morpholinocyclohexyl)Methyl)Carbamoyl)-1H-Pyrazol-5-Yl)Phenyl)-N-(Pentan-3-Yl)Oxazole-5-Carboxamide Trifluoroacetate] |
| 350 | 84 | CCC(CC)NC(=O)c1cnc(-c2cccc(-c3cc(C(=O)NC(Cc4ccccc4)C(=O)OC)n[nH]3)c2)o1 (stereo not drawn) [Example 3.28, Methyl 2-(5-(3-(5-(Pentan-3-Ylcarbamoyl)Oxazol-2-Yl)Phenyl)-1H-Pyrazole-3-Carboxamido)-3-Phenylpropanoate] |
| 20 | 91 | C[C@H](NC(=O)c1cnc(-c2cccc(-c3nnc(C(=O)NC(C4CC4)C4CC4)[nH]3)c2)o1)C1CC1 [Example 12.7, (S)-N-(1-Cyclopropylethyl)-2-(3-(5-((Dicyclopropylmethyl)Carbamoyl)-4H-1,2,4-Triazol-3-Yl)Phenyl)Oxazole-5-Carboxamide] |
| 20 | 99 | CCOC(=O)[C@@H](NC(=O)c1cnc(-c2cccc(-c3cc(C(=O)NC(C(F)F)C4CC4)[nH]n3)c2)o1)C(C)C (stereo partly drawn) [Example 2.4, (2S)-Ethyl 2-(2-(3-(5-((1-Cyclopropyl-2,2-Difluoroethyl)Carbamoyl)-1H-Pyrazol-3-Yl)Phenyl)Oxazole-5-Carboxamido)-3-Methylbutanoate] |
| 60 | 98 | COC(=O)[C@@H](NC(=O)c1cnc(-c2cccc(-c3cc(C(=O)N[C@H](C)C4CC4)n[nH]3)c2)o1)C(C)C [Example 1.5, (S)-Methyl 2-(2-(3-(3-(((R)-1-Cyclopropylethyl)Carbamoyl)-1H-Pyrazol-5-Yl)Phenyl)Oxazole-5-Carboxamido)-3-Methylbutanoate] |
| 10 | 32 | C[C@H](NC(=O)c1cc(-c2cccc(-c3ncc(C(=O)N[C@@H](C)C4CC4)o3)c2)[nH]n1)C1CC1 [Example 2.5, N-((S)-1-Cyclopropylethyl)-2-(3-(3-(((S)-1-Cyclopropylethyl)Carbamoyl)-1H-Pyrazol-5-Yl)Phenyl)Oxazole-5-Carboxamide] |
| 30 | 66 | CCC(CC)NC(=O)c1cnc(-c2cccc(-c3cc(C(=O)NCC4CCCCC4)n[nH]3)c2)o1 [Example 3.18, 2-(3-(3-((Cyclohexylmethyl)Carbamoyl)-1H-Pyrazol-5-Yl)Phenyl)-N-(Pentan-3-Yl)Oxazole-5-Carboxamide] |
| 270 | 77 | COC(=O)[C@H](CC(C)C)NC(=O)c1cc(-c2cccc(-c3ncc(C(=O)N[C@@H](CC(C)C)C(=O)OC)o3)c2)[nH]n1 [Example 3.58, (S)-Methyl 2-(2-(3-(3-(((S)-1-Methoxy-4-Methyl-1-Oxopentan-2-Yl)Carbamoyl)-1H-Pyrazol-5-Yl)Phenyl)Oxazole-5-Carboxamido)-4-Methylpentanoate] |
| 190 | 92 | CC(C)OC(=O)[C@@H](NC(=O)c1cnc(-c2cccc(-c3nnc(C(=O)N[C@@H](C)C4CC4)[nH]3)c2)o1)C(C)C [Example 12.12] |
| 400 | 112 | CCC(CC)NC(=O)c1cc(-c2cccc(-c3ncc(C(=O)NC(C)(C)C)o3)c2)[nH]n1 [Example 1.13, N-(Tert-Butyl)-2-(3-(3-(Pentan-3-Ylcarbamoyl)-1H-Pyrazol-5-yl)Phenyl)Oxazole-5-Carboxamide] |
| 10 | 113 | COC(=O)[C@@H](NC(=O)c1cnc(-c2cccc(-c3cc(C(=O)NC(C4CC4)C4CC4)[nH]n3)c2)o1)C(C)C [Example 1.29, (S)-Methyl 2-(2-(3-(5-((Dicyclopropylmethyl)Carbamoyl)-1 H-Pyrazol-3-yl)Phenyl)Oxazole-5-Carboxamido)-3-Methylbutanoate] |
| 770 | 65 | CCC(CC)NC(=O)c1cc(-c2cccc(-c3ncc(C(=O)NCc4ccc5c(c4)OCO5)o3)c2)[nH]n1 [Example 1.31, N-(Benzo[d][1,3]Dioxol-5-Ylmethyl)-2-(3-(3-(Pentan-3-Ylcarbamoyl)-1 H-Pyrazol-5-yl)Phenyl)Oxazole-5-Carboxamide] |
| 140 | 97 | CCC(CC)NC(=O)c1cnc(-c2cccc(-c3ncc(C(=O)NC(CC)CC)o3)c2)o1 [Example 18.0, 2,2′-(1,3-Phenylene)Bis(N-(Pentan-3-Yl)Oxazole-5-Carboxamide)] |
| 680 | 125 | CCOC(=O)[C@@H](NC(=O)c1cnc(-c2cccc(-c3cc(C(=O)N[C@@H](C)C4CC4)n(CCO)n3)c2)o1)C(C)C [Example 4.2, (S)-Ethyl 2-(2-(3-(5-(((S)-1-Cyclopropylethyl)Carbamoyl)-1-(2-Hydroxyethyl)-1H-Pyrazol-3-Yl)Phenyl)Oxazole-5-Carboxamido)-3-Methylbutanoate] |
| 710 | 75 | CCC(CC)NC(=O)c1cc(-c2cccc(-c3ncc(C(=O)N[C@@H](C)CC)o3)c2)[nH]n1 [Example 1.45, (S)-N-(Sec-Butyl)-2-(3-(3-(Pentan-3-Ylcarbamoyl)-1H-Pyrazol-5-Yl)Phenyl)Oxazole-5-Carboxamide] |
| 160 | 88 | CCC(CC)NC(=O)c1cc(-c2cccc(-c3ncc(C(=O)NC(C)(C)CCc4ccccc4)o3)c2)[nH]n1 [Example 3.68, N-(2-Methyl-4-Phenylbutan-2-Yl)-2-(3-(3-(Pentan-3-Ylcarbamoylyl-Carbamoyl)-1H-Pyrazol-5-Yl)Phenyl)Oxazole-5-Carboxamide] |
| 450 | 82 | CCOC(=O)C1(C)CCN(C(=O)c2cc(-c3cccc(-c4ncc(C(=O)NC(CC)CC)o4)c3)[nH]n2)C1 (stereo not drawn) [Example 3.20, Ethyl 3-Methyl-1-(5-(3-(5-(Pentan-3-Ylcarbamoyl)Oxazol-2-Yl)Phenyl)-1H-Pyrazole-3-Carbonyl)Pyrrolidine-3-Carboxylate] |
| 270 | 76 | CCC(CC)NC(=O)c1cnc(-c2cccc(-c3cc(C(=O)NCC(C)(C)OC)n[nH]3)c2)o1 [Example 3.12, 2-(3-(3-((2-Methoxy-2-Methylpropyl)Carbamoyl)-1H-Pyrazol-5-Yl)Phenyl)-N-(Pentan-3-Yl)Oxazole-5-Carboxamide] |
| 190 | 97 | CCC(CC)NC(=O)c1cnc(-c2cccc(-c3cc(C(=O)NC(COC)C(C)C)n[nH]3)c2)o1 (stereo not drawn) [Example 3.36, 2-(3-(3-((1-Methoxy-3-Methylbutan-2-Yl)Carbamoyl)-1H-Pyrazol-5-Yl)Phenyl)-N-(Pentan-3-Yl)Oxazole-5-Carboxamide] |
| 490 | 92 | CCC(CC)NC(=O)c1cnc(-c2cccc(-c3cc(C(=O)N[C@@H](C)[C@H]4CCCO4)n[nH]3)c2)o1 (single isomer, unassigned) [3.0 (i)] |
| 880 | 66 | CCC(CC)NC(=O)c1cc(-c2cccc(-c3ncc(C(=O)N[C@@H](C(=O)OC)c4ccccc4)o3)c2)[nH]n1 [Example 1.39, (R)-Methyl 2-(2-(3-(3-(Pentan-3-Ylcarbamoyl)-1H-Pyrazol-5-yl)Phenyl)Oxazole-5-Carboxamido)-2-Phenylacetate] |
| 290 | 112 | CCC(CC)NC(=O)c1cc(-c2cccc(-c3ncc(C(=O)NC(CC)CC)o3)c2)n[nH]1 [Example 1.20, N-(Pentan-3-Yl)-2-(3-(5-(Pentan-3-Ylcarbamoyl)-1H-Pyrazol-3-yl)Phenyl)Oxazole-5-Carboxamide] |
| 27 | 81 | CCOC(=O)[C@@H](NC(=O)c1cnc(-c2cccc(-c3cc(C(=O)NC(CC)CC)n(CCO)n3)c2)o1)C(C)C [Example 4.1, (S)-Ethyl 2-(2-(3-(1-(2-Hydroxyethyl)-5-(Pentan-3-Ylcarbamoyl)-1H-Pyrazol-3-Yl)Phenyl)Oxazole-5-Carboxamido)-3-Methylbutanoate] |

| SMILES | EC50 [nM] | Emax [%] |
| --- | --- | --- |
| CCOC(=O)[C@@H](NC(=O)c1cc(-c2cccc(-c3ncc(C(=O)NC(CC)CC)o3)c2)nn1CCOP(=O)(OCC)OCC)C(C)C [Example 11.0, (S)-Ethyl 2-(1-(2-((Diethoxyphosphoryl)Oxy)Ethyl)-3-(3-(5-(Pentan-3-Ylcarbamoyl)Oxazol-2-Yl)Phenyl)-1H-Pyrazole-5-Carboxamido)-3-Methylbutanoate] | 610 | 128 |
